Literature values as cited in patent US20250319042A1, “SKIN CARE PRODUCT WITH LAPACHOL AND METHOD FOR USE THEREOF” (priority 2024, published 2025).

How the values were obtained:
prostaglandin E2 (PGE2) = settings: in cell culture
[1] = test system: tumor necrosis factor alpha (TNF-a); settings: in cell culture
[2] = test system: matrix metalloproteinase 3 (MMP-3); settings: in cell culture
MMP-8 = settings: in cell culture
MMP-9 = settings: in cell culture

Row | solubility | inhibition of MMP-3 [2] | SMILES | inhibition of PGE2 (prostaglandin E2 (PGE2)) | inhibition of TNF-a [1] | inhibition of MMP-8 (MMP-8) | inhibition of MMP-9 (MMP-9)
1 | primarily oil-soluble | – | CC(C)=CCC1=C(O)C(=O)c2ccccc2C1=O [lapachol, 2-hydroxy-3-(3-methyl-2-butenyl)-1,4-naphtoquinone] | – | – | – | –
2 | – | inhibits | CC1(C)CCC2=C(O1)c1ccccc1C(=O)C2=O [beta-lapachone] | inhibits | inhibits | inhibits | inhibits
